Results published in ChEMBL document CHEMBL1201862, “PubChem BioAssay data set” (2004).
The source made the active and inactive calls. Rule as the data show it, for most assays here: actives have a measured EC50 and inactives only a lower limit.

How the values were obtained:
BJ [1] = assay: cytotoxicity toward BJ-TERT-LT-ST fibroblasts, dose response, cell-based, RAS-independent, luminescence (AID 1935); assay type: functional; conditions: Homo sapiens;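 also: BJ fibroblasts immortalized with TERT plus LT and ST oncogenes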
[2] = cytotoxicity toward DRD oncogenic fibroblasts, dose response, cell-based, non-viral oncogenic, luminescence (AID 1934); assay type: functional; conditions: Homo sapiens
BJ [3] = assay: cytotoxicity toward BJ-TERT fibroblasts, dose response, cell-based, RAS-independent, luminescence (AID 1933); assay type: functional; conditions: Homo sapiens
BJ [4] = assay: cells; assay type: functional, cell-based; conditions: Homo sapiens
[5] = NIH-3T3 fibroblast cytotoxicity, dose response, cytotoxicity control, cell-based, fluorescence, Alamar Blue, secondary assay (AID 2327); assay type: functional;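 also: NIH-3T3 mouse fibroblasts cultured with fluconazole at 8 µg/mL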
[6] = C. albicans growth with fluconazole, confirmation, fluorescence, retest (AID 2467); assay type: functional, cell-based
[7] = Luminescence Cell-Based Dose Confirmation HTS to Identify Inhibitors of Platelet Dense Granule Release. [Related pubchem assays: 1663 (Primary HTS), 1678 (Summary of Project)]; assay type: functional
[8] = target: Luciferin 4-monooxygenase (Photinus pyralis, UniProt P08659); assay: firefly luciferase enzyme inhibitors, dose response, biochemical, luminescence (AID 1891)
Cytochrome P450 2C9 = Cytochrome P450 2C9 (Homo sapiens, UniProt P11712)
Cytochrome P450 3A4 = Cytochrome P450 3A4 (Homo sapiens, UniProt P08684);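 also: CYP3A4 tested as one member of a cytochrome P450 panel screen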
INS1 = assay: beta cell apoptosis inhibitors, cytokine rescue, dose response, luminescence, retest (AID 449756); assay type: functional, cell-based; conditions: Rattus norvegicus;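 also: cell death triggered by IL-1 beta plus TNF-alpha plus IFN-gamma mixture; protective hits raise ATP signal compared with cytokine alone wells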
Streptococcus = assay: Group A Streptococcus viability loss, dose response, counter-screen for streptokinase expression inhibitor project, luminescence, BacTiterGlo (AID 1915); assay type: functional, organism-based;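 also: potency for reduction of bacterial viability or growth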
Streptokinase A = target: T1, Streptokinase A (Streptococcus pyogenes serotype M1, UniProt P10520); assay: S. pyogenes streptokinase expression inhibitors, potency, dose response, plasminogen activation absorbance, OD405 (AID 1914); assay type: functional, Streptococcus pyogenes M1 GAS;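 also: secreted streptokinase activity via plasminogen activation per viability signal from cell pellet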
T1 sequence (P10520 whole entry): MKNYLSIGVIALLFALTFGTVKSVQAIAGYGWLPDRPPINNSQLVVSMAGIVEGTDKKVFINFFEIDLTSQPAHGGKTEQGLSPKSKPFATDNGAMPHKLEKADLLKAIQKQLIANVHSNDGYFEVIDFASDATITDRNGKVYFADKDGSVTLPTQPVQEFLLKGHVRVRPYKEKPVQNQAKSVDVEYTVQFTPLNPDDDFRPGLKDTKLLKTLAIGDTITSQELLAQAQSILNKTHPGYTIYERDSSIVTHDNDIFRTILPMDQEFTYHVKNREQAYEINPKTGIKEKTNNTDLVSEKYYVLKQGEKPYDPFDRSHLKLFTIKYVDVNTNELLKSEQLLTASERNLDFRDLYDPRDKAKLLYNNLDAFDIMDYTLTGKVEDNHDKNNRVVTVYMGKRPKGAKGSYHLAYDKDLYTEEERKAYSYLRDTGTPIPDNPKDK

Large T antigen = Large T antigen (Simian virus 40, UniProt P03070); assay type: functional, Betapolyomavirus macacae;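 also: Confirmatory-stage PubChem screen for compounds that inhibit SV40 T antigen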
[9] = target: T2, RNA-binding protein pos-1 (Caenorhabditis elegans, UniProt G5EF15); assay: inhibitors of POS-1/mex-3 RNA binding, dose response, biochemical, fluorescence polarization (AID 1964);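 also: purified POS-1 fused to maltose binding protein made in E. coli; potency of compounds blocking POS-1 binding to fluorescent RNA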
T2 sequence (G5EF15 whole entry): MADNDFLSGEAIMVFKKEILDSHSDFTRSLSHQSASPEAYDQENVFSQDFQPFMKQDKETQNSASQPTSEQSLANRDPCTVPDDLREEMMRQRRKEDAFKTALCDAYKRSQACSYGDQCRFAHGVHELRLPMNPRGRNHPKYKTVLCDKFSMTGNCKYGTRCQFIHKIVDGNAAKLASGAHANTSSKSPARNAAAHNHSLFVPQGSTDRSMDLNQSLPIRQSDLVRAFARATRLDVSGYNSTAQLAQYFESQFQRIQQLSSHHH

[10] = microbe, parasite or virus in culture; assay type: functional; conditions: Mycobacterium tuberculosis
[11] = target: T3, Zinc finger protein mex-5 (Caenorhabditis elegans, UniProt Q9XUB2); assay: MEX-5/TCR-2 RNA interaction inhibitors, dose response, biochemical, C. elegans, fluorescence polarization (AID 1960)
T3 sequence (Q9XUB2 whole entry): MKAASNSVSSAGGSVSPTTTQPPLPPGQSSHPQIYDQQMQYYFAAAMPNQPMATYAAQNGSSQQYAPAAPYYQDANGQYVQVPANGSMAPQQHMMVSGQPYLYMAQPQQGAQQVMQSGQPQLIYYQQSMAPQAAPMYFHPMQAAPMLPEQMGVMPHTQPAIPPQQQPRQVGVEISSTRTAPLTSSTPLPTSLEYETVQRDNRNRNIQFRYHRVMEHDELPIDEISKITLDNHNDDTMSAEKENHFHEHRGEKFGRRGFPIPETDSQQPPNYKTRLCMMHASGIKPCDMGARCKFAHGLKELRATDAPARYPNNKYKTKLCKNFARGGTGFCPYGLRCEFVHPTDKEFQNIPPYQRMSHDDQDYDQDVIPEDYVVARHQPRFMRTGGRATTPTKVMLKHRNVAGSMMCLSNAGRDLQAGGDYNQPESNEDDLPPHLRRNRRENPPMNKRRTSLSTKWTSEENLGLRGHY

[12] = system: Streptococcus sp. 'group A'; assay: growth inhibition of control SK(-) GAS strain, dose response, counter-screen for streptokinase expression inhibitor project, luminescence, kanamycin, BacTiterGlo, confirmation (AID 1900); assay type: functional, organism-based
[13] = Luminescence Cell-Based Dose Response HTS to Identify Activators of Luciferase Translation or Activity in H4 […] Cells. [Related pubchem assays: 1829 (Project Summary), 1814 (Primary HTS)]; assay type: functional
[14] = Luminescence Cell-Based Dose Confirmation HTS to Identify Activators of 5'UTR Stem-Loop Driven Alpha-Synuclein mRNA Translation in H4 Neuroglioblastoma Cells. [Related pubchem assays: 1829 (Project Summary), 1814 (Primary HTS)]; assay type: functional
H4 = assay: Luminescence Cell-Based Dose Response HTS to Identify Activators of 5'UTR Stem-Loop Driven Prion Protein mRNA Translation in H4 Neuroglioblastoma Cells. [Related pubchem assays: 1829 (Project Summary), 1814 (Primary HTS)]; assay type: functional; conditions: Homo sapiens
[15] = P. falciparum Dd2 growth inhibitors, dose response, SYBR Green, dry powder samples, set 9 (AID 1159568); assay type: functional, cell-based
[16] = target: T4, Carboxy-terminal domain RNA polymerase II polypeptide A small phosphatase 1 (Homo sapiens, UniProt Q9GZU7); assay: inhibitors of CTDSP1, concentration-response testing, biochemical assay, absorbance-based, actives from ultra-high-throughput screening (AID 540297); assay type: functional
T4 sequence (Q9GZU7 whole entry): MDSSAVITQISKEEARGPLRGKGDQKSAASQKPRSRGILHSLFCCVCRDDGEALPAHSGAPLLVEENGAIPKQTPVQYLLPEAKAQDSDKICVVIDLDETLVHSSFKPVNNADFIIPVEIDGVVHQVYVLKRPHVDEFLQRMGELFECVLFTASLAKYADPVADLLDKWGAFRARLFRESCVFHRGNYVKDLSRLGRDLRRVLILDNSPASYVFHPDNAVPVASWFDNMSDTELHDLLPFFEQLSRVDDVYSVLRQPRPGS

Fatty acid synthase [17] = target: T5, Fatty acid synthase (Homo sapiens, UniProt P49327); assay: FAS thioesterase domain inhibitors, dose response, biochemical, endpoint fluorescence intensity, uHTS hits (AID 624327); assay type: functional;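 also: fluorescence from hydrolysis of an O-methyl fluorescein acyl ester substrate by the enzyme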
Fatty acid synthase [18] = target: T5, Fatty acid synthase; assay: FAS thioesterase domain inhibitors, dose response, biochemical, kinetic fluorescence intensity (AID 624326); assay type: functional;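 also: rate of fluorescence rise from hydrolysis of a fluorogenic O-methyl fluorescein ester substrate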

T5 sequence (P49327 whole entry, the tested form may be a part): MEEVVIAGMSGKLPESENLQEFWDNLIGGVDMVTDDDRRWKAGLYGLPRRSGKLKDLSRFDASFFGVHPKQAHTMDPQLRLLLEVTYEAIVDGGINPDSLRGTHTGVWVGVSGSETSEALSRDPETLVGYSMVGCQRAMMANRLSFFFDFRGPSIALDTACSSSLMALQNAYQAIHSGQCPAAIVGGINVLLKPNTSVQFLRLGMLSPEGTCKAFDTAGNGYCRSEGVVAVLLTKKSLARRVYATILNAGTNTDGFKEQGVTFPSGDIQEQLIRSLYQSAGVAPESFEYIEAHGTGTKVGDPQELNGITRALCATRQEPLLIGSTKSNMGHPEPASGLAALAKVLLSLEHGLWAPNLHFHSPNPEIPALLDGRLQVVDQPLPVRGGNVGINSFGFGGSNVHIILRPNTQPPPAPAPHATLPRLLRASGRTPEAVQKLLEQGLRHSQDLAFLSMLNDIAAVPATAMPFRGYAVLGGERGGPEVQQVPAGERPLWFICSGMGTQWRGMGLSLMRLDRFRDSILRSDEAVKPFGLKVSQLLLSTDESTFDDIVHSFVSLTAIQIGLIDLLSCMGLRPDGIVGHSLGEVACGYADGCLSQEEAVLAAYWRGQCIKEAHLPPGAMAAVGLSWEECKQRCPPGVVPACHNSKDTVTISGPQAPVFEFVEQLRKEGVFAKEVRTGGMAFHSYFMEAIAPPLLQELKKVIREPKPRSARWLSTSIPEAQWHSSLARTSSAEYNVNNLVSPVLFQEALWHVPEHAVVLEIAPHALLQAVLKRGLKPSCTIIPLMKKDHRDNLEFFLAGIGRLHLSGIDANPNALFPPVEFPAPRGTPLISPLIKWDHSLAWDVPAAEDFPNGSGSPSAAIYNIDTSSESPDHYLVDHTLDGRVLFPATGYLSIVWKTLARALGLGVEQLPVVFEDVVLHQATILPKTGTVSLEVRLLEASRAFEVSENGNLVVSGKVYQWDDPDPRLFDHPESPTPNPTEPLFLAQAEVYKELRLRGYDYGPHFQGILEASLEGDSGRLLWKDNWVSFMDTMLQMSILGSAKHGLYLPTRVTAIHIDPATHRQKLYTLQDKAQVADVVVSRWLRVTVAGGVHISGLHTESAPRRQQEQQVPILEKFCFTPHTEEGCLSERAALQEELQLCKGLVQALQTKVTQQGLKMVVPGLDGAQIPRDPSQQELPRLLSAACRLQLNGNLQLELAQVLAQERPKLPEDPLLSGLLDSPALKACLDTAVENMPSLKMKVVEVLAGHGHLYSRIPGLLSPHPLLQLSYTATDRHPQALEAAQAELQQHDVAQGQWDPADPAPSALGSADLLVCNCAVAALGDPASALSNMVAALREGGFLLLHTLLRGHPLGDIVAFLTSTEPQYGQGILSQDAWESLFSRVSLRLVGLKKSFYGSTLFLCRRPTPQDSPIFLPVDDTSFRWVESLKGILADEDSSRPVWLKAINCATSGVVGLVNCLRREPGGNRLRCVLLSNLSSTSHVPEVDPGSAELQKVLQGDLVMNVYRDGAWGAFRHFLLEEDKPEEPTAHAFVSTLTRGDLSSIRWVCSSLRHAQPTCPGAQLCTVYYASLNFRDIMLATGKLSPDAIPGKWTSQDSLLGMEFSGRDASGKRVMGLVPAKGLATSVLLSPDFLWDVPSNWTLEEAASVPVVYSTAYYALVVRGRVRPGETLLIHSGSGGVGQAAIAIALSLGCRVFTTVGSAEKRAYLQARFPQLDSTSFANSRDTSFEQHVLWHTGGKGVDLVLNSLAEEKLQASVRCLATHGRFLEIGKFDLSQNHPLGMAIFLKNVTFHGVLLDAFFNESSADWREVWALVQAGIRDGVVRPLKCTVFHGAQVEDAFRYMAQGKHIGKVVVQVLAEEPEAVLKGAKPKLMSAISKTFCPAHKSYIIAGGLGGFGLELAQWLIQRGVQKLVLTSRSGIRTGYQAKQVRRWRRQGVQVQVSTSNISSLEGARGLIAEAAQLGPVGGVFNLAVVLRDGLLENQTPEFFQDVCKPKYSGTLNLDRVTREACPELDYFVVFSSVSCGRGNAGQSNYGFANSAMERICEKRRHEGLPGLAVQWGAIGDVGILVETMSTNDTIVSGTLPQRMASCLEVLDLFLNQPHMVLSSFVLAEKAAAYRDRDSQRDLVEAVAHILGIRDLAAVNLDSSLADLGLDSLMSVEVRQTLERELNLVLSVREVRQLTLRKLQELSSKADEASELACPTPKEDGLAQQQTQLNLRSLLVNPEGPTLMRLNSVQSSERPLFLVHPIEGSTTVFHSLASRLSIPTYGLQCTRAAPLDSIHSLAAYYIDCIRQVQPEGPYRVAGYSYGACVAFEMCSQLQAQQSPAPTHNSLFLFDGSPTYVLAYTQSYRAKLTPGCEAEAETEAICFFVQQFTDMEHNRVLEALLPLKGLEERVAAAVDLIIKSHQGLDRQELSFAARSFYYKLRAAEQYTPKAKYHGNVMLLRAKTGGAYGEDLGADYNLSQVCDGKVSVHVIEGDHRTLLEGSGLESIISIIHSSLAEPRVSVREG
Sequence of Large T antigen (P03070 whole entry, the tested form may be a part): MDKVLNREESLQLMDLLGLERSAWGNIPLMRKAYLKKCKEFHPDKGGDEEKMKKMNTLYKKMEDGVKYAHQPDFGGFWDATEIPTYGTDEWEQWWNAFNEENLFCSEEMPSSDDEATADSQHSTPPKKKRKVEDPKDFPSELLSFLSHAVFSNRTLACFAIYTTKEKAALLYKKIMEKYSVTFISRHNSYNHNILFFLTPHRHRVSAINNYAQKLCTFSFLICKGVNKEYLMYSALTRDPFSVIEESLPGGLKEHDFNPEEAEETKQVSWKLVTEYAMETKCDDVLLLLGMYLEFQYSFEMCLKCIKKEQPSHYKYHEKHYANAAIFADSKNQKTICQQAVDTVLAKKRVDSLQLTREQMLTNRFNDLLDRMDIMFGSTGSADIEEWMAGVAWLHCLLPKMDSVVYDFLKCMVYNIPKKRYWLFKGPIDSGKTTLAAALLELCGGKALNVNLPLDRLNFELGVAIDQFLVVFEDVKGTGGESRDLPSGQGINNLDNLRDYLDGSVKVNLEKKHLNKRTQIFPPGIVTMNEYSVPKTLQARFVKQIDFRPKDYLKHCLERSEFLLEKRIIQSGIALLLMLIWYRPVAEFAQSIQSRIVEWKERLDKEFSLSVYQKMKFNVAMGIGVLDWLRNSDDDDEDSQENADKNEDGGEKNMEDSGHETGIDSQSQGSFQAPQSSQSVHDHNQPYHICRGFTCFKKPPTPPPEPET
Sequence of Luciferin 4-monooxygenase (P08659 whole entry): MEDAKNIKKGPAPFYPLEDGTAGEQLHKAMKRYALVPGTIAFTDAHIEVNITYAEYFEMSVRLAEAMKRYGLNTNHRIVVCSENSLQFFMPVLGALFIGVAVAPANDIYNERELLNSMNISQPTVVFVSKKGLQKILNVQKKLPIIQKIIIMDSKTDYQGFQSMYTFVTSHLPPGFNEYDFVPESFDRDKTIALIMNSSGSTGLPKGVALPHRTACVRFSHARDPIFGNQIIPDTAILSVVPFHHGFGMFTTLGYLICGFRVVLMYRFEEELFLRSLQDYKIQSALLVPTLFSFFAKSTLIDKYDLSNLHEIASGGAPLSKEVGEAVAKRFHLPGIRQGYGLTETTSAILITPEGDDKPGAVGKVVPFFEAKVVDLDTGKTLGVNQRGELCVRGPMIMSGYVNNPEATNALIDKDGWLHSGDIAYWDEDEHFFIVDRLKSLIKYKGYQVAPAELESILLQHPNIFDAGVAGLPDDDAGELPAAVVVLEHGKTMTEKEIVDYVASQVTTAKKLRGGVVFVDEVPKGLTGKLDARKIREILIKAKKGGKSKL
Sequence of Cytochrome P450 2C9 (P11712 whole entry): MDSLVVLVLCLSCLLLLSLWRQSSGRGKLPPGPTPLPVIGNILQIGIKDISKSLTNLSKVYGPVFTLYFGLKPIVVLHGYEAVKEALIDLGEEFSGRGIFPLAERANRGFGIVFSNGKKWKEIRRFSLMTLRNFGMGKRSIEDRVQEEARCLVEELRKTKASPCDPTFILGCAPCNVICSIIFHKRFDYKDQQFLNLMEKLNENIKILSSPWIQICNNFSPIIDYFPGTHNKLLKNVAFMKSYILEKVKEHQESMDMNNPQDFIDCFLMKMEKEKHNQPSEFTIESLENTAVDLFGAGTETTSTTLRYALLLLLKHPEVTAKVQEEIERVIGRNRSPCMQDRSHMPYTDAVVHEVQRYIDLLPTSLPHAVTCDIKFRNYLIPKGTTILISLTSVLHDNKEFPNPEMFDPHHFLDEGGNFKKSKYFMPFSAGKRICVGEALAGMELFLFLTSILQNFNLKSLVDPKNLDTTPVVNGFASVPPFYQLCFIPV
Sequence of Cytochrome P450 3A4 (P08684 whole entry): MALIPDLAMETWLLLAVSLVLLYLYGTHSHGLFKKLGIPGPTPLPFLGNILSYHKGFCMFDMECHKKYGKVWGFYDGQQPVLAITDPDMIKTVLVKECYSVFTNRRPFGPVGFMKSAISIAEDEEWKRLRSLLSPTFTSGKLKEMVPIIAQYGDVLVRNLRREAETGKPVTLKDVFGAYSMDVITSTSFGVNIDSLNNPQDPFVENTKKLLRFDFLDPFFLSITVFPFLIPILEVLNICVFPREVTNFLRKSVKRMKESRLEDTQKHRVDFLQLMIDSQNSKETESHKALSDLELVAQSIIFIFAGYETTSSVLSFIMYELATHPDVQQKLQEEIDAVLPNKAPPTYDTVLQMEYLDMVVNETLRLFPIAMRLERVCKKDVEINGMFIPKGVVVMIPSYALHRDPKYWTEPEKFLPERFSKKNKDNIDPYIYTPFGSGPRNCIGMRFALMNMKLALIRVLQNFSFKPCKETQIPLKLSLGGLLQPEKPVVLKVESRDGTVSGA

## COc1cc(C(=O)c2cocc2C(=O)c2ccc3c(c2)OCO3)cc(OC)c1OC
BJ [1]
  EC50: 2.57 µM (inconclusive)
[2]
  EC50: 1.45 µM (active)
BJ [3]
  EC50: 2.71 µM (active)
BJ [4]
  EC50: 38.6 µM (inconclusive)

## Cc1cccc(C2CC3(CC(C)(C)N=C(S)N3)Oc3cc(O)ccc32)c1 (configuration not stated)
[5]
  EC50: > 150 µM (inactive)
[6]
  EC50: 2.44 µM (active)

## Cc1ccc(N2C(=O)c3ccccc3C2O)nc1 (configuration not stated)
BJ [1]
  EC50: > 75 µM (inconclusive)
[7]
  EC50: 1.74 µM (active)
[2]
  EC50: 7.47 µM (inconclusive)
[8]
  EC50: 6.56 µM (active)
BJ [3]
  EC50: 8.32 µM (active)

## CCC(=O)c1ccc(OCC(=O)Nc2ccccc2N2CCCCC2)cc1
BJ [1]
  EC50: > 150 µM (not active)
[2]
  EC50: > 150 µM (not active)
BJ [3]
  EC50: > 150 µM (not active)
BJ [4]
  EC50: 35.6 µM (active)

## O=C(CNc1ccccc1F)N/N=C/C1CC=CCC1 (configuration not stated)
[5]
  EC50: > 160 µM (inactive)
[6]
  EC50: > 38 µM (not active)

## O=C(CN1C(=O)c2ccccc2C1=O)NCC(=O)OCC(=O)c1ccc(Br)cc1
Cytochrome P450 2C9
  AC50: inconclusive
Cytochrome P450 3A4
  AC50: 3.55 µM (inconclusive)

## C=CCN1C(=O)N/C(=C/c2ccc(N3CCOCC3)o2)C1=O
[5]
  EC50: 20 µM (active)
[6]
  EC50: 2.15 µM (active)
INS1
  AC50: > 260 µM (inactive)

## N=C(N)N/N=C1C=C/C(=N\NC(N)=S)C=C\1 [AMBAZONE]
Streptococcus
  EC50: 0.35 µM (active)
Streptokinase A
  EC50: > 150 µM (not active)
Large T antigen
  IC50: 13.7 µM (active)
[9]
  EC50: 76.5 µM (active)
[10]
  CC50: > 40 µM (active)
[11]
  EC50: 9.73 µM (active)
[12]
  EC50: < 0.06 µM (active)

## CN=C(S)N1N=C(c2ccccc2)CC1c1ccccc1Cl (configuration not stated)
[5]
  EC50: > 160 µM (inactive)
[6]
  EC50: > 38 µM (not active)

## CC(=O)Nc1cccc(Oc2nc(-c3ccccn3)nc3ccccc23)c1
[9]
  EC50: 79.3 µM (active)
[13]
  EC50: 11.8 µM (active)
[11]
  EC50: 5.2 µM (active)
[14]
  EC50: 92.7 µM (active)
H4
  EC50: 7.56 µM (active)

## O=C(Cc1ccccn1)N1CC2(C1)[C@H](c1ccccc1)[C@H](CO)N2C(=O)c1ccncc1
[15]
  AC50: 30 µM (active)

## Cc1ccc(NC(=O)CN2C(=O)CSc3ccc(S(=O)(=O)N4CCCCC4)cc32)cc1
[16]
  IC50: 4.3 µM (active)
Fatty acid synthase [17]
  IC50: 14.9 µM (active)
Fatty acid synthase [18]
  IC50: 9.65 µM (active)

## O=C(O)c1ccc(-n2cccc2)cc1O
[9]
  EC50: > 300 µM (not active)
[11]
  EC50: > 300 µM (not active)
